Laboratory results: paper PMC9457815 (Molecules, 2022)
Where two headings read alike, the source gives them in different places.

Assays:
DENVGFP = experiment: Antiviral assay, propagative DENVGFP vector in Huh7 cells, flow cytometry; format: cell-based, dengue virus (serotype 2); details: Dengue virus, Huh-7, 72 h, read-out: EC50 DENV
Procedure: (§1) The plasmid used to obtain the DENVGFP vector (pFK-DVs-G2A) was provided by Ralf Bartenschlager (Heidelberg University, Heidelberg, Germany) and Laurent Chatel-Chaix (Institut National de la Recherche Scientifique, Laval, QC, Canada). The 2 plasmids used to obtain the HIV-1GFP vector were PMD2.G and pNL4-3-GFPΔEnvΔNef. For DENVGFP, viral titer was measured using a plaque assay in Vero cells, as described in [53]. For HIV-1GFP, the viral titer was obtained by measuring the infectivity of serially diluted vectors in CRFK cells, as described in [54].
(§2) Briefly, 7.5 × 10^3 Huh7 cells/well or 2 × 10^4 THP-1 cells/well were plated in 96-well plates at 37 °C for 24 h. […] Each dilution was added to the cell plates to obtain final concentrations of 1.56 µM to 200 µM for alkaloids and matched concentrations of DMSO, and 0.05 µM to 6.4 µM for lycorine or 0.078 µM to 10 µM for raltegravir. Lycorine and raltegravir were used as DENV and HIV-1 inhibitor controls, respectively. DENVGFP and HIV-1GFP were then added at multiplicities of infection (MOIs) of 0.025 and 0.1, respectively. Plates were placed in an incubator at 37 °C and 5% CO2 for 72 h. Afterward, the cells were fixed in 3.7% formaldehyde and the percentage of infection was measured using flow cytometry with an FC500 MPL cytometer (Beckman Coulter, Inc., Brea, CA, USA). Data analysis was performed using Flowjo software (BD, FlowJo LLC, Ashland, OR, USA). All experiments were performed at least twice. EC50 values were calculated using QuestGraph IC50 calculator software (MLA Quest Graph™ IC50 Calculator. AAT Bioquest, Inc. https://www.aatbio.com/tools/ic50-calculator (accessed on 1 July 2022)).

AChE = target: T1, AChE (Electrophorus electricus, UniProt O42275); experiment: biochemical; format: biochemical, electric eel; details: substrate ATCh; nid = no inhibition detected at 1 mM
T1 construct: purchased Abcam ab138871
T1 sequence (O42275 24-633): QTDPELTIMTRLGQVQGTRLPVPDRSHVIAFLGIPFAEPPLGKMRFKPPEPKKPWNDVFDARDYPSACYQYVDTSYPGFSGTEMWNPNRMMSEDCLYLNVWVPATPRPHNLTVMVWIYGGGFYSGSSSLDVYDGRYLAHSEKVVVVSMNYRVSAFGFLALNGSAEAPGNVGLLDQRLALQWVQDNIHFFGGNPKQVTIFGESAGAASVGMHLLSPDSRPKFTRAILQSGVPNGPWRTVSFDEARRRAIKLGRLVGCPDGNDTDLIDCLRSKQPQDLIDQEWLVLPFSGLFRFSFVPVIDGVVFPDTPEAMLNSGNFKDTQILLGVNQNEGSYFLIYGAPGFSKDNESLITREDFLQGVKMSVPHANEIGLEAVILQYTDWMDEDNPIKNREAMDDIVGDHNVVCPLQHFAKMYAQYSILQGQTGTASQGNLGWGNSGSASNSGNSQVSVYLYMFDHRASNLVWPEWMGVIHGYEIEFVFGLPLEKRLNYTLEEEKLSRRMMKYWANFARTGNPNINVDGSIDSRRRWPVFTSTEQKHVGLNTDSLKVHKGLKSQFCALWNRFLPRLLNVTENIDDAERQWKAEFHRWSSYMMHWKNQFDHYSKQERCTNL
Procedure: (§3) Pharmacological properties specific to AD were tested first on AChEs (electric eel) according to the kit (ab138871, Abcam) that provides a colorimetric measure of enzyme activity and inhibition. Briefly, the reaction was performed in a final volume of 100 μL in 96-well microplates. […] For this, DMSO-dissolved test compounds were added to a final concentration of 1 mM (1% DMSO) in duplicates. Next, a 5 μL reaction mixture containing equal amounts of acetylthiocholine (20X) and DTNB (20X) was added to each well. Ultimately, the enzyme solution was added to a final concentration of 0.25 U/mL and the absorbance was measured at 412 nm in kinetic mode for 10 min using a microplate reader (Synergy H1, Biotek, Dorval, QC, Canada). The same procedure was utilized for the BuChE (equine, Sigma-Aldrich) activity test, except that the enzyme concentration was 2 U/mL per reaction. DTNB (Bis(3-carboxy-4-nitrophenyl) disulfide, Ellman’s Reagent), acetylthiocholine iodide, and butyrylthiocholine iodide were purchased from Sigma-Aldrich (Oakville, ON, Canada). […] Experiments were performed at least twice. Inhibition was calculated as follows:I = 100 × (1 − Δi/Δe) where Δi is the difference in the absorbance between two time points in the presence of the inhibitor, and Δe is the difference in the absorbance using two time points in presence of DMSO or an appropriate solvent.

[1] = Cytotoxicity assay (Cell-Titer GLO, cellular ATP levels) on THP-1 cells; format: cell-based, human; details: human; THP-1 cells, 72 h, ATP levels
Procedure: (§4) Briefly, 7.5 × 10^3 Huh7 cells/well or 2 × 10^4 THP-1 cells/well were plated in black 96-well plates and incubated at 37 °C for 24 h. […] Each dilution was added to the cell plates to obtain final concentrations of 6.25 µM to 200 µM for alkaloids and DMSO, and 0.39 µM to 50 µM for lycorine. […] The plates were then incubated at 37 °C and 5% CO2 for 72 h. Cell-Titer GLO reagent was added to the plates previously equilibrated to room temperature. The plates were then mixed on an orbital shaker for 2 min and incubated for 10 min at room temperature. The luminescence signal was measured with a microplate spectrophotometer (Synergy H1, Biotek, Dorval, QC, Canada). Viability percentages were obtained by calculating the ratio of the signal corresponding to each alkaloid concentration to the signal of the equimolar DMSO control. All experiments were performed at least twice. Median cytotoxic concentrations (CC50) were calculated using QuestGraph IC50 calculator software (MLA Quest Graph™ IC50 Calculator, AAT Bioquest, Inc., Sunnyvale, CA, USA).

THP-1 cells = experiment: as above; format: cell-based, human
Procedure: as §4

[2] = Cytotoxicity assay (Cell-Titer GLO, cellular ATP levels) on Huh7 cells; format: cell-based, human; details: human; Huh7 cells, 72 h, ATP levels
Procedure: as §4

Huh7 cells = experiment: as above; format: cell-based, human; details: for cytotoxicity to Huh7 cells: tested concentrations (lycorine: below 50 µM); for cell death, Huh7 cells: 200 µM
Procedure: as §4

BuChE = target: T2, BuChE (Equus caballus, UniProt P81908); experiment: biochemical; set-up: species or system equine; details: for IC50 BuChE / IC50: nid = no inhibition detected at 1 mM
T2 construct: purchased Sigma-Aldrich
T2 sequence (P81908 whole entry): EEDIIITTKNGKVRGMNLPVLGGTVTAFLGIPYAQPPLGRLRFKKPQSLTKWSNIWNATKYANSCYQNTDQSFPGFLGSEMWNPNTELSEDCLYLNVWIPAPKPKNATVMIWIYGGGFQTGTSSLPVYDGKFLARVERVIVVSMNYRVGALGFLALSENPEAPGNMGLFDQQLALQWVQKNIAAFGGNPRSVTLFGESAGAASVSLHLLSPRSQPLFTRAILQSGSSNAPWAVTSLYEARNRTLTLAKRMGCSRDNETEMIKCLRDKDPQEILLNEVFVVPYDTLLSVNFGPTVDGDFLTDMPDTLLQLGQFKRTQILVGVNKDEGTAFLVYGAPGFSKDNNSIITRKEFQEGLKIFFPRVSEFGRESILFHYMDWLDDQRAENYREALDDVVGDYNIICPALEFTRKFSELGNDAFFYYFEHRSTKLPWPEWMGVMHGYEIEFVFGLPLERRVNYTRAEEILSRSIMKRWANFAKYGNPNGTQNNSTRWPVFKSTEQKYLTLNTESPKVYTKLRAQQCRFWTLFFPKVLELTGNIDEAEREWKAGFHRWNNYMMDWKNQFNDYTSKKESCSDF
Procedure: as §3

HIV-1GFP = experiment: microbe, parasite or virus in culture; format: cell-based, human immunodeficiency virus (HIV)-1; details: for EC50: Human immunodeficiency virus 1, THP-1, 72 h, read-out: EC50 HIV-1; for inhibition at 200 µM: Human immunodeficiency virus 1, THP-1, read-out: inhibition of HIV-1 infection
Procedure: as §1, §2

POP = target: T3, POP (Homo sapiens, UniProt P48147); experiment: Prolyloligopeptidase (POP) inhibition assay, fluorogenic kit; format: biochemical; details: substrate DPP (Ala-Pro-AMC dipeptide), nid = no inhibition detected at 1 mM
T3 construct: purchased BPS Bioscience Inc
T3 sequence (P48147 1-710): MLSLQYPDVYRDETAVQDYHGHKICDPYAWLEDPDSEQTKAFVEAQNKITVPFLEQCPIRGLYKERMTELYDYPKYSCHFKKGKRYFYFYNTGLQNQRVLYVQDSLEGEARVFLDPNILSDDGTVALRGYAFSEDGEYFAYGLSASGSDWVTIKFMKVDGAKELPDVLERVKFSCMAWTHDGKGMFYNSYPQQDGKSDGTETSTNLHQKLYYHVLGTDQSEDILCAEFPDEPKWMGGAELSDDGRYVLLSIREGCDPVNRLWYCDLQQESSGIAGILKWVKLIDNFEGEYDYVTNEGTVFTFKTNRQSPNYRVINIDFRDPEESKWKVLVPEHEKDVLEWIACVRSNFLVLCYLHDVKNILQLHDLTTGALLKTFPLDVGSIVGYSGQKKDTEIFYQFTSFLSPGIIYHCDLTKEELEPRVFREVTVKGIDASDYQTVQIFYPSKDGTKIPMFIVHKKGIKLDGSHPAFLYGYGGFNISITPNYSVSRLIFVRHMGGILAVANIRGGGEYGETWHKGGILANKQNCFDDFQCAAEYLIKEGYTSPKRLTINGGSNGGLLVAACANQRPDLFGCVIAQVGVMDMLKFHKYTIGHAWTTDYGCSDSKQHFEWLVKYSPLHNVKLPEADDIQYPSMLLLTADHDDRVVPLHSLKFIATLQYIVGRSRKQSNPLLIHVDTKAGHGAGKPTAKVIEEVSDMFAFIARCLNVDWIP
Procedure: POP enzyme activity was measured using the Fluorogenic POP Assay Kit (BPS Bioscience Inc., San Diego, CA, USA). The reaction was carried out in a final volume of 50 μL in a low-binding NUNC microtiter plate. All compounds were tested at a final concentration of 250 μM in duplicate. A DPP substrate was added to a final concentration of 2.5 μM and the POP enzyme solution was subsequently added to a final concentration of 1 ng/μL. Optical densities at 440 nm were recorded using a microplate reader (Synergy H1, Biotek, QC, Canada).

[3] = tested concentrations (lycorine: below 50 µM)
[4] = 200 µM, killing a majority of the cells
[5] = 100 µM, killing a majority of the cells

Row | SMILES | EC50 (DENVGFP) [µM] | IC50 AChE (AChE) | CC50 at 72 h [1] [µM] | cytotoxicity to THP-1 cells (THP-1 cells; [3]) | CC50 at 72 h [2] [µM] | cytotoxicity to Huh7 cells (Huh7 cells) | IC50 BuChE (BuChE; substrate ATCh) | IC50 BuChE (BuChE; substrate BuTCh) | EC50 (HIV-1GFP) [µM] | IC50 (BuChE; substrate ATCh) [µM] | IC50 (BuChE; substrate BuTCh) [µM] | cytotoxicity to THP-1 cells (THP-1 cells; [4]) | cell death, Huh7 cells (Huh7 cells) [%] | inhibition at 200 µM (HIV-1GFP) [%] | IC50 (POP; IC50 POP) [µM] | cytotoxicity to THP-1 cells (THP-1 cells; [5]) | IC50 (AChE) [µM] | loss of BuChE inhibition compared with norbelladine (BuChE) [fold] | IC50 (POP; read-out: IC50 POP) [µM] | inhibition at 2000 µM (BuChE; read-out: BuChE inhibition (positive control)) [%]
1 | NCCc1ccc(O)cc1 [Tyramine] | > 200 | nid | > 200 | not cytotoxic | > 200 | not cytotoxic | nid | nid | > 200 |  |  |  |  |  |  |  |  |  |  | 
2 | COc1ccc(CNCCc2ccc(O)cc2)cc1O [4′-O-methylnorbelladine] | 40.5 | nid | > 200 |  | > 200 |  |  |  | 108 | 42.9 | 91.6 |  |  |  |  |  |  |  |  | 
3 | Oc1ccc(CCNCc2ccc(O)c(O)c2)cc1 [Norbelladine] | 50.4 | nid | 82.2 |  | 72.6 |  |  |  | 50.5 | 33.3 | 26.1 | highly cytotoxic | 50 | 94 to 99 |  |  |  |  |  | 
4 | COc1ccc(/C=N/CCc2ccc(O)cc2)cc1O [4′-O-methylnorcraugsodine] | > 200 | nid | > 200 |  | > 200 |  | nid | nid | > 200 |  |  |  |  |  |  |  |  |  |  | 
5 | COc1cc(/C=N/CCc2ccc(O)cc2)ccc1O [3′-O-methylnorcraugsodine] | 176 | nid | > 200 |  | > 200 | weakly cytotoxic | nid | nid | 107 |  |  |  |  | 94 to 99 | 1150 |  |  |  |  | 
6 | O[C@H]1[C@H]2c3cc4c(cc3CN3CCC(=C[C@@H]1O)[C@H]23)OCO4 [Lycorine, reference compound] | 0.09 |  | 10.7 | cytotoxic | 17.4 | cytotoxic |  |  |  |  |  |  |  |  |  |  |  |  |  | 
7 | O=Cc1ccc(O)c(O)c1 [3,4-DHBA, 3,4-dihydroxybenzaldehyde] | 24.1 | nid | 31.7 |  | 173 |  | nid | nid | 51.5 |  |  |  | 50 | 94 to 99 |  | highly cytotoxic |  |  |  | 
8 | COc1ccc(CNCCc2ccc(O)cc2)cc1OC [3′,4′-O-dimethylnorbelladine] | 27.5 |  | > 200 |  | 131 |  |  |  | 98.3 | 87.8 | 87.9 |  | 50 |  |  |  | 320 | 3 |  | 
9 | COc1ccc(/C=N/CCc2ccc(O)cc2)cc1OC [3′,4′-O-dimethylnorcraugsodine] | > 200 | nid | > 200 |  | > 200 |  | nid | nid | > 200 |  |  |  |  |  |  |  |  |  |  | 
10 | COc1cc(CNCCc2ccc(O)cc2)ccc1O [3′-O-methylnorbelladine] | 44.9 | nid | 99 |  | > 200 |  |  |  | 135 | 40.2 | 58.9 | highly cytotoxic |  |  | 1230 |  |  |  |  | 
11 | Oc1ccc(CC/N=C/c2ccc(O)c(O)c2)cc1 [Norcraugsodine] | 37.7 | nid | 27 |  | 122 |  | nid | nid | 55.5 |  |  |  | 50 | 94 to 99 |  | highly cytotoxic |  |  | 567 | 
12 | CCN(C)C(=O)Oc1cccc([C@H](C)N(C)C)c1 [rivastigamine, Rivastigmine, reference compound] |  |  |  |  |  |  |  |  |  |  |  |  |  |  |  |  |  |  |  | 100
13 | Cc1nnc(C(=O)NC(C)(C)c2nc(C(=O)NCc3ccc(F)cc3)c(O)c(=O)n2C)o1 [Raltegravir, reference compound] |  |  | > 10 |  |  |  |  |  | 0.098 |  |  |  |  |  |  |  |  |  |  | 
